From US20190336460A1, “C[…] ACID OR PHARMACEUTICALLY ACCEPTABLE SALT THEREOF AS ACTIVE INGREDIENT FOR PREVENTING OR TREATING OBESITY OR METABOLIC SYNDROMES CAUSED BY OBESITY” (KOREA FOOD RESEARCH INSTITUTE, priority 2016, published 2019)
Where “and” joins values, the source holds several entries; their conditions need not be identical. Identical values can stand only once.

Legend:
[1] = system: high-fat diet-induced obesity experimental animals (C57BL/6J mice); assay: Body weight change in high-fat diet-induced obesity mice orally given organic acid salts; assay type: in vivo, mouse; settings: for average body weight after 13 weeks of rearing / reduction in body weight gain compared with the high-fat diet control group: C57BL/6J mice, high-fat diet 13 weeks, oral once a day; for average body weight after 13 weeks of rearing: 10 mmol (2 μg/g bodyweight); for reduction in body weight gain compared with the high-fat diet control group: 10 mmol
Description: (§1) In the present experiment, five-week-old C57BL/6J mice were purchased from Saeron Bio (Uiwang, Korea), and acclimated for 1 week before use in the experiment. The rearing room was controlled to have a temperature of 20±2° C., a humidity of 55±10%, and a light/darkness cycle of 12 hours during the experimental period. The experimental animals were divided into 6 groups according to the randomized block design, after 1-week of normal diet. The experimental groups were classified into Group A (normal diet group; n=10), Group B (high-fat diet control group; n=10), Group C (high-fat diet+sodium formate 10 mmol; n=9), Group D (high-fat diet+sodium butyrate 10 mmol; n=9), Group E (high-fat diet+sodium propionate 10 mmol; n=8), and Group F (high-fat diet+sodium acetate 10 mmol; n=4).
(§2) Water and feed were freely accessible. Groups A and B were orally administered with physiological saline, and the other groups were orally administered with corresponding organic acids once a day (2 μg/g bodyweight). For the test groups, obesity was induced by a high-fat diet for 13 weeks, and a high-fat diet (D12492; 60% of the calories) purchased from Research Diet (USA) was used in the experiment.
(§3) The body weights of the experimental animals were measured at a fixed time once a week during the experiment. The experimental animals were fasted for 12 hours before sacrifice, and blood was collected from eyes of the experimental animals anesthetized with ether. In order to prevent the coagulation of the blood after collection, the blood was placed in anti-coagulation tubes and left in an ice bath for 20 min. The collected blood samples were centrifuged at 3000 rpm for 10 min to separate serum therefrom, and refrigerated until use in the experiment. Thereafter, the kit through an enzymatic method was purchased from Young Dong Diagnostics (Yong-In, Korea) to measure the levels of blood lipids (triglyceride, cholesterol, HDL-Cholesterol, and LDL-Cholesterol). The organs were extracted, washed with physiological saline, dehydrated with a filter bed, and then weighed.
The high-fat diet-induced obesity experimental animals (C57BL/6J mice) were orally administered with each 10 mmol corresponding organic acid for 13 weeks, and the weights of the mice were measured once a week during the rearing.

[2] = system: high-fat diet-induced obesity experimental animals (C57BL/6J mice); assay: Organ weights (fat tissues, prostate, liver, spleen) in high-fat diet-induced obesity mice; assay type: in vivo, mouse; settings: high-fat diet 13 weeks, 10 mmol; for Brown fat weight / Epididymal fat weight / Kidney fat weight / Subcutaneous fat weight: oral once a day, mean ± S.D.
Description: as §1, §2, §3
The kidney fat, epididymal fat, subcutaneous fat, brown fat, prostate, liver, and spleen were extracted immediately after blood collection from the control and experimental groups, and washed with physiological saline, subjected to surface moisture removal, and then weighed.

[3] = system: high-fat diet-induced obesity experimental animals (C57BL/6J mice); assay: Blood analysis: serum lipid concentrations in high-fat diet-induced obesity mice; assay type: in vivo, mouse; settings: for serum Cholesterol / serum HDL / serum LDL / serum Triglyceride / content of cholesterol, reduction compared with the high-fat diet control group / serum triglyceride, lower value compared with the high-fat diet control group: C57BL/6J mice, high-fat diet 13 weeks, 10 mmol; for serum Cholesterol / serum HDL / serum LDL / serum Triglyceride: oral once a day, 12 h fasted, mean ± S.D.; for content of cholesterol, reduction compared with the high-fat diet control group / serum triglyceride, lower value compared with the high-fat diet control group: oral; for LDL-cholesterol content compared with the high-fat diet control group (in words): mouse, in vivo
Description: as §1, §2, §3

epididymal fat cells = assay: Size measurement of epididymal fat cells (H&E staining, Image J); assay type: in vivo, mouse; settings: C57BL/6J mice, high-fat diet 13 weeks, oral, 10 mmol; compared among groups and with high-fat diet control group
Description: as §1, §2
The immobilized tissue was sliced into 18 μm using a cryostat microtome, and fat cells were stained by hematoxylin and eosin (H&E) fat staining. The fat cells were decolorized using 60% isopropanol after the staining, and then imaged using a digital camera under a microscope. For size analysis of fat cells, the area of fat cells was measured using Image J Software (National Institute of Health, Maryland, USA).

[4] = administered orally; cited from earlier work
[5] = oral, no significant difference

| SMILES | average body weight after 13 weeks of rearing [1] | Brown fat weight [2] | Epididymal fat weight [2] | Kidney fat weight [2] | Subcutaneous fat weight [2] | weight of epididymal fat, lower value compared with the high-fat diet control group ([2]; oral) | serum Cholesterol [3] | serum HDL [3] | serum LDL [3] | serum Triglyceride [3] | content of cholesterol, reduction compared with the high-fat diet control group [3] | epididymal fat cell size (in words) (epididymal fat cells) | reduction in body weight gain compared with the high-fat diet control group [1] | weight of subcutaneous fat, lower value compared with the high-fat diet control group ([2]; oral) | LDL-cholesterol content compared with the high-fat diet control group (in words) [3] | serum triglyceride, lower value compared with the high-fat diet control group [3] | also measured |
| --- | --- | --- | --- | --- | --- | --- | --- | --- | --- | --- | --- | --- | --- | --- | --- | --- | --- |
| CC(=O)[O-].[Na+] [acetate, sodium acetate] | 41.08 g | 0.11 ± 0.03^A g | 2.31 ± 0.45^AB g | 0.66 g and 0.81 ± 0.07^BAB g | 1.74 ± 0.31^A g | 7.6% | 114.86 ± 3.76^A mg/dl | 61.09 ± 2.21^A mg/dl | 32.34 ± 1.44^A mg/dl | 155.21±5.43 mg/dl and 155.21 ± 5.43^A mg/dl | 7.8% | smaller in that order of butyrate, propionate, formate, and acetate |  |  |  |  | body weight compared with the high-fat diet control group (in words) ([1]; after 13 weeks, p<0.05): no significant difference; weight of brown fat, higher value compared with the high-fat diet control group [2, 5]: 22.22%; weight of subcutaneous fat, higher value compared with the high-fat diet control group [2, 5]: 10.13%; serum triglyceride compared with the high-fat diet control group (in words) ([3]; p<0.05): significantly higher value |
| CCCC(=O)[O-].[Na+] [butyrate, sodium butyrate] | 31.25 g | 0.09 ± 0.04^A g | 2.00 ± 0.29^B g | 0.71 ± 0.12^BC g | 1.16 g and 1.16 ± 0.25^B g | 20% | 95.63 ± 3.87^B mg/dl | 55.99 ± 0.43^B mg/dl | 24.95 ± 1.23^D mg/dl | 128.01±14.72 mg/dl and 128.01 ± 14.72^B mg/dl |  | smaller in that order of butyrate, propionate, formate, and acetate | 15.6% | 26.58% | lower values |  |  |
| O=C[O-].[Na+] [formate, sodium formate] | 36.78 g | 0.09 ± 0.03^A g | 2.01 ± 0.24^B g | 0.72 g and 0.72 ± 0.08^BC g | 1.08 g and 1.08 ± 0.21^B g | 19.6% | 79.00 ± 2.81^C mg/dl | 41.51 ± 3.56^D mg/dl | 26.24 ± 0.29^CD mg/dl | 99.48±14.18 mg/dl and 99.48 ± 14.18^C mg/dl | 36.6% | smaller in that order of butyrate, propionate, formate, and acetate | 10.4% | 31.16% | lower values | 23.54% | oral amount causing no side effect in the human body [4]: up to 10 g |
| CCC(=O)[O-].[Na+] [propionate, sodium propionate] | 30.05 g | 0.09 ± 0.02^A g | 1.91 ± 0.44^B g | 0.71 g and 0.66 ± 0.09^C g | 1.07 g and 1.07 ± 0.24^B g | 23.6% | 95.63 ± 5.41^B mg/dl | 50.12 ± 1.69^C mg/dl | 30.41 ± 0.51^B mg/dl | 120.68±10.07 mg/dl and 120.68 ± 10.07^B mg/dl |  | smaller in that order of butyrate, propionate, formate, and acetate | 18.3% | 32.27% |  | 7.2% |  |
